The values that follow come from patent US12466818B2, “Thienyl-aniline compounds for treatment of dermal disorders” (NFlection Therapeutics, Inc., priority 2018, dated 2025).

The subject of one data set is A375 cells. Put plainly: Assay 2: A375 (BRAF) GI50 cell-based assay (Cell Titer-Glo). The note with it: Homo sapiens, A-375, 72 hours. As for the experimental part: Alternatively, the following procedure can be used to measure cell-based activity. Test compounds were dissolved in DMSO in 10 mM stock. Cell Titer-Glo® 2.0 Luminescent cell viability assay reagent was purchased from Promega (Madison, WI). A375 and HCT116 cell lines were purchased from American Type Culture Collection (Manassas, VA). For A375 cells, cell culture media was DMEM+10% FBS. For HCT116 cells, cell culture media was McCoy's 5A+10% FBS. All media were supplemented with 100 μg/mL of penicillin, and 100 μg/mL of streptomycin. Cultures were maintained at 37° C. in a humidified atmosphere of 5% CO2 and 95% air.
Test compounds were diluted in DMSO solution with 10-dose and 3-fold dilutions in a source plate starting at 10 mM. 25 nL of each test compound was delivered from the source plate to each well of the 384-well cell culture plates (T=Final) by Echo 550. 25 μL of culture medium containing 2000 of A375 or HCT116 cells was added to each of the wells in duplicates of the cell culture plates (T=0 and T=Final). 25 μL of Cell Titer Glo 2.0 reagent was added to each well of cell culture plate (T=0). The contents were mixed on an orbital shaker for 2 min and incubated at room temperature for 15 min to stabilize luminescent signal. Luminescence was recorded by Envision 2104 Multilabel Reader (PerkinElmer, Santa Clara, CA). The number of viable cells in culture was determined based on quantitation of the ATP present in each culture well. The cells in cell culture plate (T=Final) were incubated with the compounds at 37° C., 5% CO2 for 72 hours. 25 μL of Cell Titer Glo 2.0 reagent was added to each well. The contents were mixed on an orbital shaker for 2 min and incubated at room temperature for 15 min to stabilize luminescent signal. Luminescence was recorded by Envision 2104 Multilabel Reader (PerkinElmer, Santa Clara, CA). The number of viable cells in culture was determined based on quantitation of the ATP present in each culture well. The GI50 curves were plotted using the GraphPad Prism 4 program based on a sigmoidal dose-response equation Y=Bottom+(Top-Bottom)/(1+10^((Log EC50−X)*HillSlope)). All parameters in the equation were calculated by GraphPad Prism 4 program. […] Accordingly, GI50 is the value of 10^X, where X was calculated by the Curve Fitting Equation when Y=50 using Excel.
Assay 2 is the A375 (BRAF) GI50 (nM) cell-based assay as described in Example 39. A2 indicates an IC50 of less than or equal to 1 μM, and B2 indicates an IC50 of greater than 1 μM and less than or equal to 2 μM.

Data set [1] is described as follows: Assay 4: liver S9 half-life stability assay. It counts as in vitro ADME. The note with it: liver S9 fraction, pH 7.4; human liver S9, 1 μM test compound, NADPH. How it is done: Compounds can be assessed for metabolic stability in human skin by assessing their rate of disappearance from human S9 skin fraction. Similarly, compounds can be assessed for metabolic stability in human liver by assessing their rate of disappearance from human S9 liver fraction. The protocol below is used to assess the difference between skin and hepatic metabolism.
The assay was carried out in 96-well microtiter plates at 37° C. Reaction mixtures (25 μL) contained a final concentration of 1 μM test compound, 2 mg/mL liver or skin protein, and 1 mM NADPH in buffer (100 mM potassium phosphate, pH 7.4 buffer with 1 mM EDTA, 3 mM MgCl2). At each of the time points (0, 15, 30, and 60 minutes), 150 μL, of quench solution (100% acetonitrile with 0.1% formic acid) with internal standard was transferred to each well. […]
All samples were analyzed on LC/MS/MS using an AB Sciex API 4000 instrument, coupled to a Shimadzu LC-20AD LC Pump system. […]
The extent of metabolism was calculated as the disappearance of the test compound, compared to the 0-min control reaction incubations. Initial rates were calculated for the compound concentration and used to determine tin values and subsequently, the intrinsic clearance, CLint=(0.693)(1/t1/2 (min)) (mL incubation/mg of S9 protein). […]

For `O=C1CCCc2c1sc(Nc1ccc(I)cc1F)c2C(=O)NOCCO` [Compound 1.029, 2-((2-Fluoro-4-iodophenyl)amino)-N-(2-hydroxyethoxy)-7-oxo-4,5,6,7-tetrahydrobenzo[b]thiophene-3-carboxamide], in the data set with A375 cells, the GI50 (commonly the concentration that inhibits growth by half) is no more than 1000 nM. Moreover, the half-life (in general, the time needed for the level to fall by half in the phase considered) at 1 μM in data set [1] fell in the range of 0.833 to 1.67 h.
